The results in this text go back to patent US20230103791A1 (GLAXOSMITHKLINE INTELLECTUAL PROPERTY DEVELOPMENT LIMITED, priority 2019, published 2023).

A value given as a limit tells only on which side of the number the result lay.

For the first assay, the target named is T1, human Nav1.8 (Homo sapiens, UniProt Q9Y5Y9).
T1 construct: expressed in transfected cells; host or cells: HEK293 (HEK293-Nav1.8)
T1 sequence (Q9Y5Y9 whole entry): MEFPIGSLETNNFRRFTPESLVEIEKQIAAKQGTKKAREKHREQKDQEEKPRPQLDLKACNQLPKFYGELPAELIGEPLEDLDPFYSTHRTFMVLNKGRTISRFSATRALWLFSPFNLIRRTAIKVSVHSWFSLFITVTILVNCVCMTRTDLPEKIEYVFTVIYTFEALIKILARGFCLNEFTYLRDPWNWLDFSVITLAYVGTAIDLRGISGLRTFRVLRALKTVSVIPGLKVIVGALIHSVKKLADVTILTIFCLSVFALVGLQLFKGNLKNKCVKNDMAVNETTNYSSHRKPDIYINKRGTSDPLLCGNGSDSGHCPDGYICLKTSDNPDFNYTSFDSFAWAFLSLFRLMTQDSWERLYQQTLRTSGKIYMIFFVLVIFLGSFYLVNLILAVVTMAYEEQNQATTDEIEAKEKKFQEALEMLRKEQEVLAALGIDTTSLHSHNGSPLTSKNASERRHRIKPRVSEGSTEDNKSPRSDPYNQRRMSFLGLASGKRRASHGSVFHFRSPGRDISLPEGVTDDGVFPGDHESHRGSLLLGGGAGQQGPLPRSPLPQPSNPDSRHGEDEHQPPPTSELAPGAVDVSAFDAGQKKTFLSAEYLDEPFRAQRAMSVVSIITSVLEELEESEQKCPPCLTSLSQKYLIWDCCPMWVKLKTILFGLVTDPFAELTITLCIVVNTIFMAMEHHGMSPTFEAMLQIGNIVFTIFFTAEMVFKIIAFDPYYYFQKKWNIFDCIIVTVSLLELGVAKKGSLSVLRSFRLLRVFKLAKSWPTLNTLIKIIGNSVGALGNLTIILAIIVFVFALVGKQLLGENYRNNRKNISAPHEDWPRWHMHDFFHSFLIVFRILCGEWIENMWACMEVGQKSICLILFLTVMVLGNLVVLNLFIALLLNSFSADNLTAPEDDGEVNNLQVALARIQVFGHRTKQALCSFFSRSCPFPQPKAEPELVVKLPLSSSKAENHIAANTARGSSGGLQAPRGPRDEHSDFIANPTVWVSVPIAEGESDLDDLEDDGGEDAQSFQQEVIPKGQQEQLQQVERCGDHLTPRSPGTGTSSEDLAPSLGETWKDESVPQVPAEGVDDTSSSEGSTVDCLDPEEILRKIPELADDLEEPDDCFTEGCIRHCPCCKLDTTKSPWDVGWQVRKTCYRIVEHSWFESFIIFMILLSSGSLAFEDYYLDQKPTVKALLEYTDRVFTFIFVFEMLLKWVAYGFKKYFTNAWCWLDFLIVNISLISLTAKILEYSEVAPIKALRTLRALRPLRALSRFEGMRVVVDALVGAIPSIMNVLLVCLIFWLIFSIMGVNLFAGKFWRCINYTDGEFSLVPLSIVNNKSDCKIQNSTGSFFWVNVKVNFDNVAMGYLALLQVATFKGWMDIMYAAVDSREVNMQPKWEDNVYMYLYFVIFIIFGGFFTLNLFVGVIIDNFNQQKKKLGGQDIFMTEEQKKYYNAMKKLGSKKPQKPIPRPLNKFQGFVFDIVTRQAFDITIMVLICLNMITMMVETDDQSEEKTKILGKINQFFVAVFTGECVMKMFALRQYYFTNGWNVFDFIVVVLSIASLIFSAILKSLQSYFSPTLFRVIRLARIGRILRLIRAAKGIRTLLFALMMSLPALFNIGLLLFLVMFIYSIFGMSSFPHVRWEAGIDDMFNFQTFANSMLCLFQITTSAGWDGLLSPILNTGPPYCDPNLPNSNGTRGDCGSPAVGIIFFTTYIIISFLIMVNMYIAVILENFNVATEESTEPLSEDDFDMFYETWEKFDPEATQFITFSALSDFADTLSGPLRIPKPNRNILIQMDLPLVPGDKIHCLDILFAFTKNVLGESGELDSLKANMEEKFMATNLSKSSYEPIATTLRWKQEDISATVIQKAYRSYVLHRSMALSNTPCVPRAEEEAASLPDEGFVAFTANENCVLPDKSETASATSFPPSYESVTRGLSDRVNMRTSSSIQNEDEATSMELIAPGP
T1 sequence (Q07699 19-218 partner): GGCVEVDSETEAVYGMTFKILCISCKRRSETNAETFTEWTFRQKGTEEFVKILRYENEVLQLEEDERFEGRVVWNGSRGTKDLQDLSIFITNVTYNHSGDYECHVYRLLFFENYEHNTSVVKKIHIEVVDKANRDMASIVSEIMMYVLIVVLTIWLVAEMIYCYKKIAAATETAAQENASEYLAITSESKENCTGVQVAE
In words: Nav1.8 sodium channels assay, QPatch 48 HTX electrophysiology in HEK293-Nav1.8 cells. It counts as cell-based. As to conditions: Table 1; HEK293-Nav1.8, QPatch 48 HTX, half inactivation state voltage protocol (V1/2); single run or average of two or more runs; read-out: Nav1.8 pIC50 (converted). The gist of the method: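 IC50 came from 6-8 point curves of P2 current amplitude, normalized to baseline and a positive reference, and corrected for run-down using vehicle-only wells. Automated patch clamp used HEK293-Nav1.8 (with Navβ1 and TREK1) at pH 7.4 outside and CsF-based solution inside. An 8 s inactivating step at −46 mV preceded the 0 mV test pulse, repeated at 0.07 Hz.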
Regarding `Cc1cc(F)ccc1N1CN(c2ccc(=O)[nH]c2Cl)C(=O)c2ccc(C(F)(F)F)cc21` [drawing 292, 3-(2-chloro-6-oxo-1,6-dihydropyridin-3-yl)-1-(4-fluoro-2-methylphenyl)-7-(trifluoromethyl)-2,3-dihydroquinazolin-4(1H)-one], the IC50 was 794 nM.

Consider `O=C1c2ccc(C(F)(F)F)cc2N(C2CCCCC2)CN1c1ccc(=O)[nH]c1` [drawing 263, 1-cyclohexyl-3-(6-oxo-1,6-dihydropyridin-3-yl)-7-(trifluoromethyl)-2,3-dihydroquinazolin-4(1H)-one], for which the IC50 was 6310 nM.

Staying with this assay, now noted: at least one set of experimental runs; read-out: average pIC50 value against Nav1.8 (converted).
For `Cc1cc(C#N)ccc1N1CN(c2ccc(=O)[nH]c2C)C(=O)c2cc(OC(F)(F)F)ccc21` [Example 123, 3-methyl-4-(3-(2-methyl-6-oxo-1,6-dihydropyridin-3-yl)-4-oxo-6-(trifluoromethoxy)-3,4-dihydroquinazolin-1(2H)-yl)benzonitrile], the IC50 was ≤ 100 nM.

For `Cc1cc(F)ccc1N1CN(c2ccc(=O)[nH]c2C)C(=O)c2c(C)cccc21` [Example 89, 1-(4-fluoro-2-methylphenyl)-5-methyl-3-(2-methyl-6-oxo-1,6-dihydropyridin-3-yl)-2,3-dihydroquinazolin-4(1H)-one], the IC50 was ≤ 100 nM.

Turning to `Cc1cc(OC(F)F)ccc1N1CN(c2ccc(=O)[nH]c2C)C(=O)c2cc(C(F)(F)F)ccc21` [Example 189, 1-(4-(difluoromethoxy)-2-methylphenyl)-3-(2-methyl-6-oxo-1,6-dihydropyridin-3-yl)-6-(trifluoromethyl)-2,3-dihydroquinazolin-4(1H)-one], the IC50 was ≤ 100 nM.

Take `Cc1[nH]c(=O)ccc1N1CN(c2ccc(F)cc2C(C)(C)C)c2cc(C(F)(F)F)ccc2C1=O` (single isomer, unassigned) [Example 295, 1-(2-(tert-butyl)-4-fluorophenyl)-3-(2-methyl-6-oxo-1,6-dihydropyridin-3-yl)-7-(trifluoromethyl)-2,3-dihydroquinazolin-4(1H)-one]: the IC50 was 794 to 7940 nM.

Turning to `Cc1cc(F)ccc1N1CN(C2CCS(=O)(=O)C2)C(=O)c2cc(C(F)(F)F)ccc21` (centres unmarked) [Example 15, 3-(1,1-dioxidotetrahydro-thiophen-3-yl)-1-(4-fluoro-2-methylphenyl)-6-(trifluoromethyl)-2,3-dihydroquinazolin-4(1H)-one], the IC50 was 794 to 7940 nM.

Regarding `Cc1cc(F)ccc1N1CN(c2ccc(=O)[nH]c2C)C(=O)c2ccc(OC(F)F)nc21` [Example 241, 7-(difluoromethoxy)-1-(4-fluoro-2-methylphenyl)-3-(2-methyl-6-oxo-1,6-dihydropyridin-3-yl)-2,3-dihydropyrido[2,3-d]pyrimidin-4(1H)-one], the IC50 was 126 to 631 nM.

On to `Cc1cc(F)ccc1N1CN(c2ccc(=O)[nH]c2C)C(=O)c2cc(Cl)c(C#N)cc21` [Example 105, 6-chloro-1-(4-fluoro-2-methylphenyl)-3-(2-methyl-6-oxo-1,6-dihydropyridin-3-yl)-4-oxo-1,2,3,4-tetrahydroquinazoline-7-carbonitrile], for which the IC50 was ≤ 100 nM.

For the compound `CC(=O)Nc1[nH]c(=O)ccc1N1CN(c2ccc(F)cc2C)c2ccc(C(F)(F)F)cc2C1=O` [Example 163, N-(3-(1-(4-fluoro-2-methylphenyl)-4-oxo-6-(trifluoromethyl)-1,4-dihydroquinazolin-3(2H)-yl)-6-oxo-1,6-dihydropyridin-2-yl)acetamide], the IC50 was 794 to 7940 nM.

Regarding `Cc1cc(F)ccc1N1CN(c2ccc(S(C)(=O)=O)cc2)C(=O)c2ccc(C(F)(F)F)cc21` [Example 13, 1-(4-fluoro-2-methylphenyl)-3-(4-(methylsulfonyl)phen-yl)-7-(trifluoromethyl)-2,3-dihydroquinazolin-4(1H)-one], the IC50 is 794 to 7940 nM.

Consider `Cc1cc(F)ccc1N1CN(c2ccc(C(N)=O)nc2)C(=O)c2c1ccc(Cl)c2F` [Example 7, 5-(6-chloro-5-fluoro-1-(4-fluoro-2-methylphenyl)-4-oxo-1,4-dihydroquinazolin-3(2H)-yl)picolinamide], for which the IC50 was 794 to 7940 nM.

For the compound `Cc1cnccc1N1CN(c2ccc(OC(F)(F)F)cc2C)c2ccc(C(F)(F)F)cc2C1=O` [Example 21, 1-(2-methyl-4-(trifluoromethoxy)phenyl)-3-(3-methylpyridin-4-yl)-6-(trifluoromethyl)-2,3-dihydroquinazolin-4(1H)-one], the IC50 was 126 to 631 nM.

Turning to `Cc1cc(F)ccc1N1CN(c2cnc(=O)[nH]c2)C(=O)c2ccc(C(F)(F)F)cc21` [Example 145, 1-(4-fluoro-2-methylphenyl)-3-(2-oxo-1,2-dihydropyrimidin-5-yl)-7-(trifluoromethyl)-2,3-dihydroquinazolin-4(1H)-one], the IC50 was 126 to 631 nM.

`Cc1[nH]c(=O)ccc1N1CN(c2ccc(F)c(F)c2C)c2ccc(C(F)(F)F)cc2C1=O` [Example 96, 1-(3,4-difluoro-2-methylphenyl)-3-(2-methyl-6-oxo-1,6-dihydropyridin-3-yl)-6-(trifluoromethyl)-2,3-dihydroquinazolin-4(1H)-one]: the IC50 is ≤ 100 nM.

In the case of `Cc1cc(F)ccc1N1CN(c2c(Cl)cc(=O)[nH]c2C)C(=O)c2cc(Cl)ccc21` [Example 232, 6-chloro-3-(4-chloro-2-methyl-6-oxo-1,6-dihydropyridin-3-yl)-1-(4-fluoro-2-methylphenyl)-2,3-dihydroquinazolin-4(1H)-one], the IC50 was 794 to 7940 nM.

Take `Cc1cc(F)ccc1N1CN(c2c[nH]c(=O)nc2N)C(=O)c2cc(C(F)(F)F)ccc21` [Example 169, 3-(4-amino-2-oxo-1,2-dihydropyrimidin-5-yl)-1-(4-fluoro-2-methylphenyl)-6-(trifluoromethyl)-2,3-dihydroquinazolin-4(1H)-one]: the IC50 is 126 to 631 nM.

With `Cc1ccc2c(c1)N(c1ccc(F)cc1C(C)C)CN(c1ccc(=O)[nH]c1C)C2=O` [Example 69, 1-(4-fluoro-2-isopropylphenyl)-7-methyl-3-(2-methyl-6-oxo-1,6-dihydropyridin-3-yl)-2,3-dihydroquinazolin-4(1H)-one], the IC50 is ≤ 100 nM.

Take `Cc1cc(F)ccc1N1CN(c2ccc(=O)[nH]c2C)C(=O)c2cc(Cl)c(C#N)nc21` [Example 171, 6-chloro-1-(4-fluoro-2-methylphenyl)-3-(2-methyl-6-oxo-1,6-dihydropyridin-3-yl)-4-oxo-1,2,3,4-tetra-hydropyrido[2,3-d]pyrimidine-7-carbonitrile]: the IC50 is ≤ 100 nM.

Take `Cc1cc(F)ccc1N1CN(c2ccc(=O)[nH]c2C)C(=O)c2ccc(C(F)(F)CO)cc21` [Example 197, 7-(1,1-difluoro-2-hydroxyethyl)-1-(4-fluoro-2-methylphenyl)-3-(2-methyl-6-oxo-1,6-dihydropyridin-3-yl)-2,3-dihydroquinazolin-4(1H)-one]: the IC50 is 794 to 7940 nM.

As for `Cc1cc(F)ccc1N1CN(c2ccc(=O)[nH]c2N)C(=O)c2cc(C(F)(F)F)ccc21` [Example 257, 3-(2-Amino-6-oxo-1,6-dihydropyridin-3-yl)-1-(4-fluoro-2-methylphenyl)-6-(trifluoromethyl)-2,3-dihydroquinazolin-4(1H)-one], the IC50 was ≤ 100 nM.

On to `Cc1cc(F)ccc1N1CN(c2ccc(=O)[nH]c2C)C(=O)c2ccc(C(F)(F)F)cc21` [Example 35, 1-(4-Fluoro-2-methylphenyl)-3-(2-methyl-6-oxo-1,6-dihydropyridin-3-yl)-7-(trifluoromethyl)-2,3-dihydroquinazolin-4(1H)-one], for which the IC50 is ≤ 100 nM.

Consider `CNc1cc(F)ccc1N1CN(c2ccc(=O)[nH]c2C)C(=O)c2cc(Cl)ccc21` [Example 201, 6-chloro-1-(4-fluoro-2-(methylamino)phenyl)-3-(2-methyl-6-oxo-1,6-dihydropyridin-3-yl)-2,3-dihydroquinazolin-4(1H)-one], for which the IC50 was ≤ 100 nM.

Regarding `Cc1[nH]c(=O)ccc1N1CN(c2ccc(F)cc2C2CC2)c2ccccc2C1=O` [Example 181, 1-(2-cyclopropyl-4-fluorophenyl)-3-(2-methyl-6-oxo-1,6-dihydropyridin-3-yl)-2,3-dihydroquinazolin-4(1H)-one], the IC50 was 126 to 631 nM.

In the case of `Cc1[nH]c(=O)ccc1N1CN(c2cccc(F)c2C)c2ccc(C(F)(F)F)cc2C1=O` [Example 120, 1-(3-fluoro-2-methylphenyl)-3-(2-methyl-6-oxo-1,6-dihydropyridin-3-yl)-6-(trifluoromethyl)-2,3-dihydroquinazolin-4(1H)-one], the IC50 is ≤ 100 nM.

Turning to `CCc1cc(F)ccc1N1CN(c2ccc(=O)[nH]c2C)C(=O)c2cc(Cl)c(C#N)nc21` [Example 207, 6-chloro-1-(2-ethyl-4-fluorophenyl)-3-(2-methyl-6-oxo-1,6-dihydropyridin-3-yl)-4-oxo-1,2,3,4-tetrahydropyrido [2,3-d]pyrimidine-7-carbonitrile], the IC50 is ≤ 100 nM.

For the compound `Cc1cc(F)ccc1N1CN(c2c[nH]c(=O)c(C)c2)C(=O)c2ccc(C(F)(F)F)cc21` [Example 218, 1-(4-fluoro-2-methylphenyl)-3-(5-methyl-6-oxo-1,6-dihydropyridin-3-yl)-7-(trifluoromethyl)-2,3-dihydroquinazolin-4(1H)-one], the IC50 was 126 to 631 nM.

Take `Cc1cc(Cl)ncc1N1CN(c2ccc(F)cc2C)c2ccc(C(F)(F)F)cc2C1=O` [Example 22, 3-(6-chloro-4-methylpyridin-3-yl)-1-(4-fluoro-2-methylphenyl)-6-(trifluoromethyl)-2,3-dihydroquinazolin-4(1H)-one]: the IC50 is 794 to 7940 nM.

As to `Cc1[nH]c(=O)ccc1N1CN(c2ccc(F)cc2C(C)C)c2cc(F)c(Cl)cc2C1=O` [Example 98, 6-chloro-7-fluoro-1-(4-fluoro-2-isopropylphenyl)-3-(2-methyl-6-oxo-1,6-dihydropyridin-3-yl)-2,3-dihydroquinazolin-4(1H)-one], the IC50 was ≤ 100 nM.
